Data from patent US20050222260A1, “(2S)-2-amino-a-{[2-(ethanimidoylamino) ethyl]thio}butanoic acid, a nitric oxide synthase inhibitor, in stabilized pharmaceutical dosage forms” (priority 2003, published 2005).

Legend:
[1] = Compatibility with standard pharmaceutical excipients of solid oral dosage forms; format: physicochemical; details: excipients conventionally used for solid oral dosage forms such as tablets; e.g. as compound with phosphoric acid
[2] = compared with the hydrochloride salts exemplified in WO98/30537; cited from earlier work

In the case of `CC(=N)NCCSCC[C@H](N)C(=O)O` [(2S)-2-amino4-{[2-(ethanimidoylamino)ethyl]thio}butanoic acid], the “compatibility with standard pharmaceutical excipients” value [1] is reported as “exhibits incompatability with standard pharmaceutical excipients”.

For `CC(=N)NCCSCC[C@H](N)C(=O)O.O=P(O)(O)O` [phosphate salt of (2S)-2-amino4-{[2-(ethanimidoylamino)ethyl]thio}butanoic acid], the hygroscopicity [2] is given as “considerably less hygroscopic”.
